Results on 13 compounds are retold here after patent US20250353864A1, “INDAZOLE CONTAINING MACROCYCLES AND THEIR USE” (BLOSSOMHILL THERAPEUTICS, INC., priority 2022, published 2025).

Holding throughout (format): biochemical
In one experiment the target is EGFR WT (Homo sapiens (Human), UniProt P00533). In words: HotSpot radiometric kinase assay (Reaction Biology), EGFR WT. The following applies: 10 μM ATP. Put shortly: (§1)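 Kinase, substrate and cofactors are mixed in 20 mM Hepes pH 7.5 with 10 mM MgCl2, 1 mM EGTA, 2 mM DTT and 1% DMSO. Compound is added, and about 20 min later ATP/33P-ATP (10 μM final) starts a 120-min room-temperature reaction, which is then spotted onto P81 paper.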

The target in the next experiment is CLK4 (Homo sapiens (Human), UniProt Q9HAZ1). In words: Inhibition of CLK4 kinase activity evaluated at Nanosyn (ADP-Glo). As to conditions: ADP-Glo luminescence. How it is done:
(§2) Inhibition of CLK, CLK2, CLK3 and CLK4 Kinase Activity Evaluated at Nanosyn
(§3) Kinase protein and substrate were pre-diluted in the HEPES assay buffer (100 mM HEPES, pH 7.5, 0.01% Triton X-100, 0.1% BSA, 5 mM MgCl2, […] DTT, 10 Sodium Orthovanadate, […] Beta-Glycerophosphate) dispensed into 384 well plate (5 μL per well). Control samples (0%-inhibition in the absence of inhibitor, DMSO only) and 100%-inhibition (in the absence of enzyme) were assembled in replicates of six and were used to calculate %-inhibition in the presence of compounds. Test compounds were added to the protein samples by acoustic dispensing (Labcyte Echo550). Concentration of DMSO was equalized to 1% in all samples. Reactions were initiated by addition of ATP by acoustic dispensing (Labcyte Echo550) and incubated according to assay specific incubation time. After incubation. 5 μL of Promega ADP-Glo reagent was added and incubated for 40 minutes. After 40 minutes, 10 uL of Promega kinase detection reagent was added. After 10 min of incubation with Kinase detection reagent, the luminescence was read on microplate reader (Biotek Synergy).
(In general: In ADP-Glo the light output rises with the ADP produced.)

The target of a further experiment is CLK2 (Homo sapiens (Human), UniProt P49760). Kind of experiment: Inhibition of CLK2 kinase activity evaluated at Nanosyn (ADP-Glo). As to conditions: ADP-Glo luminescence. How it is done:
as §2, §3

A further experiment addresses CLK3 (Homo sapiens (Human), UniProt P49761). In words: Inhibition of CLK3 kinase activity evaluated at Nanosyn (ADP-Glo). The following applies: ADP-Glo luminescence. How it is done: as §2, §3
For the next experiment, the target named is EGFR Δ746-750 mutant (Homo sapiens (Human), UniProt P00533, DEL746-750). In words: HotSpot radiometric kinase assay, EGFR Δ746-750 mutant. As to conditions: 10 μM ATP. Summed up:
as §1

Another experiment concerns the target EGFR L858R mutant (Homo sapiens (Human), UniProt P00533, L858R). Kind of experiment: HotSpot radiometric kinase assay, EGFR L858R mutant. As to conditions: 10 μM ATP. Summed up:
as §1

Experiment [1] concerns the target EGFR L858R/T790M/C797S mutant (Homo sapiens (Human), UniProt P00533, C797S/L858R/T790M). In words: HotSpot radiometric kinase assay, EGFR L858R/T790M/C797S mutant. The following applies: 10 μM ATP. Summed up: as §1
Experiment [2] concerns the target EGFR Δ746-750/C797S mutant (Homo sapiens (Human), UniProt P00533, C797S/DEL746-750). In words: HotSpot radiometric kinase assay, EGFR Δ746-750/C797S mutant. As to conditions: 10 μM ATP. Summed up:
as §1

Another experiment addresses EGFR (D770_N771insNPG) (Homo sapiens (Human), UniProt P00533, INS770NPG). Kind of experiment: HotSpot radiometric kinase assay, EGFR (D770_N771insNPG). As to conditions: 10 μM ATP, read-out: EGFR (Δ770_N771insNPG) IC50. Put shortly:
as §1

For a further experiment, the target named is CLK1 (Homo sapiens (Human), UniProt P49759). In words: Inhibition of CLK1 kinase activity evaluated at Nanosyn (ADP-Glo). As to conditions: ADP-Glo luminescence. How it is done: as §2, §3
The next experiment addresses EGFR L858R/T790M mutant (Homo sapiens (Human), UniProt P00533, L858R/T790M). In words: HotSpot radiometric kinase assay, EGFR L858R/T790M mutant. The following applies: 10 μM ATP. Put shortly: as §1

A word on the IC50: it is the concentration needed to halve the response being measured.

SMILES strings stand for the structures. Some results are limits rather than exact numbers.

Sequence of EGFR L858R mutant (P00533 25-1210 L858R): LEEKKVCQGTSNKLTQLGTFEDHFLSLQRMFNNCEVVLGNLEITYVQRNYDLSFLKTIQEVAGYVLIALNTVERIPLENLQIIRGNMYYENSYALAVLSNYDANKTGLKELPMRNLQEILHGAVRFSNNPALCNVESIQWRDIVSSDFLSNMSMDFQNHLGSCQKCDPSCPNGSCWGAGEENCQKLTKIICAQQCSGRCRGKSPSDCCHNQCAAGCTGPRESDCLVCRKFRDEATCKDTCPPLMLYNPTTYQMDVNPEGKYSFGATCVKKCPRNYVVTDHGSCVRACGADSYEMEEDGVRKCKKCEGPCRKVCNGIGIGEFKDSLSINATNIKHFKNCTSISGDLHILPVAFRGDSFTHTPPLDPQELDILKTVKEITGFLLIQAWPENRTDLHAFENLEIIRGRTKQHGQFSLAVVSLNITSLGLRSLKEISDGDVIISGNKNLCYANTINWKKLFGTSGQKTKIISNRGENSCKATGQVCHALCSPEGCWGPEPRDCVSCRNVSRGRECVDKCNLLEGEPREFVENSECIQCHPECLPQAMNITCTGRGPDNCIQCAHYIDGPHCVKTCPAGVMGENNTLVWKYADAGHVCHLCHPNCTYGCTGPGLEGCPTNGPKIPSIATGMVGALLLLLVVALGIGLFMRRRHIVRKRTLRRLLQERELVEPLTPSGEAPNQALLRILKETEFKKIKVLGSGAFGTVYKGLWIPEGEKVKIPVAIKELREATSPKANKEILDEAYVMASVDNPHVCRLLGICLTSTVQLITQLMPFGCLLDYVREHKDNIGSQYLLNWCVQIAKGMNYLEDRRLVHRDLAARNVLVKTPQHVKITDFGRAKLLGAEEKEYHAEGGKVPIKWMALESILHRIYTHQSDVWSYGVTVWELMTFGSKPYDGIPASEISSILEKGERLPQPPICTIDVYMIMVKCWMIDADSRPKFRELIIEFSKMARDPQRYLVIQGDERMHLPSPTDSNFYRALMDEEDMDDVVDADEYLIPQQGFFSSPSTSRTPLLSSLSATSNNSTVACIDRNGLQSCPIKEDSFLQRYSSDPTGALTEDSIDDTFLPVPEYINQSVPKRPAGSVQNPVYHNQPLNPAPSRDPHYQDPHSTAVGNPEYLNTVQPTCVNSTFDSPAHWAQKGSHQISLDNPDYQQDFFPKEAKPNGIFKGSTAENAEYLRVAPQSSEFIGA
Sequence of EGFR L858R/T790M mutant (P00533 25-1210 T790M/L858R): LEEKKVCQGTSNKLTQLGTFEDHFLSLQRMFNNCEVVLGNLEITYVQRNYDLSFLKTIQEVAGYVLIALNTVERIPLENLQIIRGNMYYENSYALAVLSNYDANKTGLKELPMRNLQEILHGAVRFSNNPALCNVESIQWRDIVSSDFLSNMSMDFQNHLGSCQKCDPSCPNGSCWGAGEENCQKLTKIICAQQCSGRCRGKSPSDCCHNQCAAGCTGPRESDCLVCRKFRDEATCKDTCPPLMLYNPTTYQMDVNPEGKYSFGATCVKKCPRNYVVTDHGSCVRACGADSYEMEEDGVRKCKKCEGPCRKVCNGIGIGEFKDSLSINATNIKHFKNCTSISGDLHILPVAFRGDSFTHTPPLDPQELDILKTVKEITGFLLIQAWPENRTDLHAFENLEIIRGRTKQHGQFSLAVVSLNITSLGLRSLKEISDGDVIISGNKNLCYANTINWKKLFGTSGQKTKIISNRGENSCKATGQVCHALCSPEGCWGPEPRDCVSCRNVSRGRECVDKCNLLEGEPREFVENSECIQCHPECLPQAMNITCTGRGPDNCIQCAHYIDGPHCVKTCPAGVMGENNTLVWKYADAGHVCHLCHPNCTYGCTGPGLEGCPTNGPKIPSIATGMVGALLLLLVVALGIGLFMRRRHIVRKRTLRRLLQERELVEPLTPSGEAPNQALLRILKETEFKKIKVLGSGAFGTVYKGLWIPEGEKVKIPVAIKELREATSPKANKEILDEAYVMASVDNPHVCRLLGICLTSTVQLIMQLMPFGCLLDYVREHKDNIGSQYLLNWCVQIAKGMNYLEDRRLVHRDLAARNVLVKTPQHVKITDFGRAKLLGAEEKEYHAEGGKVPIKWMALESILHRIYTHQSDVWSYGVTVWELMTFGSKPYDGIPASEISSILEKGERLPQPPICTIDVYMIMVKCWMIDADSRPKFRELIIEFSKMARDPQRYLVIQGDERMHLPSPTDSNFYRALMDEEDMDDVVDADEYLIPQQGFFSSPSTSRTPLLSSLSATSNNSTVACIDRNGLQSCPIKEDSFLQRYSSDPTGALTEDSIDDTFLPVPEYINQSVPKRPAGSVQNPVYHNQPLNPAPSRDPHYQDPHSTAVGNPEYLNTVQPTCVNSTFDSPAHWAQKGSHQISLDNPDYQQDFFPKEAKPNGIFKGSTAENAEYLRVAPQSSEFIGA
Sequence of EGFR L858R/T790M/C797S mutant (P00533 25-1210 T790M/C797S/L858R): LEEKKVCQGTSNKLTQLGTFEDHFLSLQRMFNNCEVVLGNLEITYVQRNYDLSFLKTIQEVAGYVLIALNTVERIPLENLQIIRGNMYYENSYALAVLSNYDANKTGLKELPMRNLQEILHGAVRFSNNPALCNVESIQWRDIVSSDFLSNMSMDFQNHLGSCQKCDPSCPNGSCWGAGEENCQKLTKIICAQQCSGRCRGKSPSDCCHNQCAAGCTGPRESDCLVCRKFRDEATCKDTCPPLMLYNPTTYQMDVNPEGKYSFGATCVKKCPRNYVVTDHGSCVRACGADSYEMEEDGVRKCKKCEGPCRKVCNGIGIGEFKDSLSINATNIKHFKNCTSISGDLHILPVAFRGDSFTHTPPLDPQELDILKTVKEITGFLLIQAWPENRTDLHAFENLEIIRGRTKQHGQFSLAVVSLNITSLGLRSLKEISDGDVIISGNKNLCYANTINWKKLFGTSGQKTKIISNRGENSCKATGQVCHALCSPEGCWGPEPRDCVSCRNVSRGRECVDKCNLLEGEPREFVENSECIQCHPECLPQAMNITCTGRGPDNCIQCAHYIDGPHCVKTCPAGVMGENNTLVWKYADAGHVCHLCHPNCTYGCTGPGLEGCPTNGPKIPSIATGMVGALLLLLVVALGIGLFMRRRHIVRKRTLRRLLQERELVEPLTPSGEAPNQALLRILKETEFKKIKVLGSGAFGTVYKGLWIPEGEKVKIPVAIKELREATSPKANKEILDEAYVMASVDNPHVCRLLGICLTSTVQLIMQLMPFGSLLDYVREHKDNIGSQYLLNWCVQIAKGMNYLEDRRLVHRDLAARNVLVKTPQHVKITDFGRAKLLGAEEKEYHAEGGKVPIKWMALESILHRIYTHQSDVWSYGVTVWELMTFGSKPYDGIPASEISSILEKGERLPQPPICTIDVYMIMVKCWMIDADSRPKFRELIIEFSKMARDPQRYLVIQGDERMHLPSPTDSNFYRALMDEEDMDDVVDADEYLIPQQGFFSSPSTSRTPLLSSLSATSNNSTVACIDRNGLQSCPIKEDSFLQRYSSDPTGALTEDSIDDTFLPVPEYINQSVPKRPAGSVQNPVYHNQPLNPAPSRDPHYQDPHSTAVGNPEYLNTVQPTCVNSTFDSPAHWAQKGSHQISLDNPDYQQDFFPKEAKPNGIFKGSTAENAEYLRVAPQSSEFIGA
Sequence of CLK1 (P49759 whole entry): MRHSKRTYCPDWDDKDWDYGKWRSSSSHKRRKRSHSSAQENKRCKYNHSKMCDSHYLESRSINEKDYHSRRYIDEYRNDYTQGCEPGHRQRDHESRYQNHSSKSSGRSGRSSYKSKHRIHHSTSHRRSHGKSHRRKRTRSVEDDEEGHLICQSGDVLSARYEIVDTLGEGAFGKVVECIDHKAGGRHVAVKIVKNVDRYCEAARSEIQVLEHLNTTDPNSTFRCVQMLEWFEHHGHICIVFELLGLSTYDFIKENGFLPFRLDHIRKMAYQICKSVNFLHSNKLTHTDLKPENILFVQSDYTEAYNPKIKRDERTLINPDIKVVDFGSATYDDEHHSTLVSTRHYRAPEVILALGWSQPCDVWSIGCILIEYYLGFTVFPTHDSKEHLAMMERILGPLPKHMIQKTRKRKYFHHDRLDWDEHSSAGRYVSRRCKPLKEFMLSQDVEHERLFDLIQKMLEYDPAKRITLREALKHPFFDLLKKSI
Sequence of CLK4 (Q9HAZ1 whole entry): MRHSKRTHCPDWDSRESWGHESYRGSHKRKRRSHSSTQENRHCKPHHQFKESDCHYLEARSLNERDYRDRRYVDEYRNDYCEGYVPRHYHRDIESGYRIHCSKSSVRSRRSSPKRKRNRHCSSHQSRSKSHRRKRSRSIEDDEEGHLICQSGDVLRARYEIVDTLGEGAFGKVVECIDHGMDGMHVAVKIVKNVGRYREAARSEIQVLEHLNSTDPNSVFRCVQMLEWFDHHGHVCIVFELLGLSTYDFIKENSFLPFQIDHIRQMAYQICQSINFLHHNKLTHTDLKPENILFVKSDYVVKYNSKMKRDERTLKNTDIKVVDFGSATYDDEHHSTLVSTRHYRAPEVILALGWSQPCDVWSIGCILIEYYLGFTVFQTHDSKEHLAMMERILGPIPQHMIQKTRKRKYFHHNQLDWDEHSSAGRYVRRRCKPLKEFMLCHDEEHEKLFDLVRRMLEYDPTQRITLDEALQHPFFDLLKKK
Sequence of EGFR Δ746-750/C797S mutant (P00533 other isoform, or with tags, fused parts or gaps C797S/del 1-668/del 746-750 limits assumed): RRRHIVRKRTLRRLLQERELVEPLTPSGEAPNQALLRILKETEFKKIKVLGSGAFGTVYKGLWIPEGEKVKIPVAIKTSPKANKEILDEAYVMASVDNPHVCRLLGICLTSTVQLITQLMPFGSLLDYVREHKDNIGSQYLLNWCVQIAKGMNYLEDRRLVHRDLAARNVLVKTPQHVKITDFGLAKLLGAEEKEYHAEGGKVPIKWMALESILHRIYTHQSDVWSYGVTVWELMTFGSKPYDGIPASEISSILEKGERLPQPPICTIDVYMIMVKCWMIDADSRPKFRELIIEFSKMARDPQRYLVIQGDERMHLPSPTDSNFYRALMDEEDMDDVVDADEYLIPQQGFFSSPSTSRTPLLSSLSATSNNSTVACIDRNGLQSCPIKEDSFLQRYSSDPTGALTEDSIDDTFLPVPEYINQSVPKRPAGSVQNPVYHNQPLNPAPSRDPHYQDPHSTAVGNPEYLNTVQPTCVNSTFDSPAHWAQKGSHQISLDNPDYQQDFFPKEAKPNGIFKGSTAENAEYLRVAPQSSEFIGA

With `CCOc1nn([C@@H](C)CO)c2c1/C=C/c1n[nH]c3ccc(cc13)-c1cnn(C)c1O[C@@H](C)CN(C)C2` [Example 155], the IC50 at EGFR WT was 1.74 nM; on CLK4 it was 0.81 nM; at CLK2, 0.14 nM; at CLK3 it was 87.4 nM; against EGFR Δ746-750 mutant, 0.62 nM; on EGFR L858R mutant, 0.34 nM. For the same compound, the IC50 in experiment [1] was 0.62 nM; in experiment [2], 0.86 nM; at EGFR (D770_N771insNPG) it was 6.36 nM; at CLK1, 0.43 nM; against EGFR L858R/T790M mutant it was 0.45 nM.
As for `CCN1Cc2c(c(C)nn2C)/C=C/c2n[nH]c3ccc(cc23)-c2cnn(C)c2O[C@@H](C)C1` [Example 165, (10S,17E)-12-ethyl-8,10,14,16-tetramethyl-2,10,11,12,13,14-hexahydro-8H-3,5-ethenotripyrazolo[3,4-f:3′,4′-j:4″,3″-n][1,4]oxazacyclopentadecine], the 50% inhibitory concentration (IC50) at EGFR WT is 28.5 nM; at CLK4, 0.19 nM; on CLK2, 0.02 nM; at CLK3 it was 72.4 nM; on EGFR Δ746-750 mutant, 4.84 nM; against EGFR L858R mutant, 6.08 nM. The half-inhibitory concentration (IC50) in experiment [1] came to 0.44 nM; in experiment [2], 2.33 nM; on EGFR (D770_N771insNPG), 19 nM; on CLK1, 0.1 nM; on EGFR L858R/T790M mutant, 0.47 nM.
Turning to `CC(C)Oc1nn(CCO)c2c1/C=C/c1n[nH]c3ccc(cc13)-c1cnn(C)c1OC[C@H](C)N(C1CC1)C2` [Example 213, 2-{(11S,17E)-12-cyclopropyl-8,11-dimethyl-16-[(propan-2-yl)oxy]-2,8,10,11,12,13-hexahydro-14H-3,5-ethenotripyrazolo[3,4-f:3′,4′-j:4″,3″- n][1,4]oxazacyclopentadecin-14-yl}ethan-1-ol], the IC50 against EGFR WT worked out at 296 nM; on CLK4 it was 5.07 nM; at CLK2 it was 6.11 nM; at CLK3 it was 1 nM; at EGFR Δ746-750 mutant, 21.1 nM; against EGFR L858R mutant, 82.6 nM. Besides, the IC50 in experiment [1] was 0.2 nM; in [2] it was 5.07 nM; at EGFR (D770_N771insNPG), 431 nM; at CLK1, 5.75 nM; at EGFR L858R/T790M mutant, 0.42 nM.
As for `CCOc1nn(CCO)c2c1/C=C/c1n[nH]c3cc(F)c(cc13)-c1cnn(C)c1O[C@@H]1CCCN(C2)C1` [Example 191, 2-[(10R,19E)-18-ethoxy-22-fluoro-8-methyl-2,10,11,12,13,15-hexahydro-3,5-etheno-10,14-methanotripyrazolo[3,4-h:3′,4′-l:4″,3″-p][1,6]oxazacycloheptadecin-16(8H)-yl]ethan-1-o], the IC50 against EGFR WT stood at 19.8 nM; at CLK4, 2.41 nM; at CLK2, 4.37 nM; at CLK3 it was 43.4 nM; against EGFR Δ746-750 mutant, 9.04 nM; against EGFR L858R mutant, 5.61 nM. The IC50 was 2.63 nM in experiment [1]; 4.19 nM in [2]; 102 nM on EGFR (D770_N771insNPG); 2.42 nM at CLK1; 4.23 nM against EGFR L858R/T790M mutant.
For `Cc1nn(C)c2c1/C=C/c1n[nH]c3ccc(cc13)-c1cnn(C)c1CN(C)CCO2` [Example 55, (17E)-8,10,14,16-tetramethyl-2,9,10,11,12,14-hexahydro-8H-3,5-ethenotripyrazolo[3,4-f:4′,3′-j:4″,3″- n][1,4]oxazacyclopentadecine], the IC50 against EGFR WT worked out at 101 nM; at CLK4, 0.58 nM; at CLK2, 0.13 nM; on CLK3, 185 nM; against EGFR Δ746-750 mutant it was 33.4 nM; on EGFR L858R mutant it was 35.2 nM. For the same compound, the half-inhibitory concentration (IC50) in experiment [1] was found to be 4.1 nM; in [2], 8.93 nM; on EGFR (D770_N771insNPG) it was 78.3 nM; on CLK1, 0.09 nM.
Regarding `CCN1Cc2c(c(OC(C)C)nn2C[C@H](C)O)/C=C/c2n[nH]c3cc(F)c(cc23)-c2cnn(C)c2O[C@@H](C)C1` [Example 296, (2S)-1-{(10S,17E)-12-ethyl-19-fluoro-8,10-dimethyl-16-[(propan-2-yl)oxy]-2,8,10,11,12,13-hexahydro-14H-3,5-ethenotripyrazolo[3,4-f:3′,4′-j:4″,3″-n][1,4]oxazacyclopentadecin-14-yl}propan-2-ol], the half-maximal inhibitory concentration (IC50) on CLK4 stood at 1.57 nM; on CLK2, 1.15 nM; at CLK3, 33.4 nM; at CLK1 it was 1.2 nM.
The like results for `Cc1noc2c1/C=C/c1n[nH]c3ccc(cc13)-c1cnn(C)c1O[C@@H](C)CN(C)C2` [Example 141, (10S,17E)-8,10,12,16-tetramethyl-2,8,10,11,12,13-hexahydro-3,5-etheno[1,2]oxazolo[5,4-f]dipyrazolo[3,4-j:4′,3′-n][1,4]oxazacyclopentadecine] were, in that order, 0.13 nM, 0.03 nM, 41.9 nM and 0.11 nM.
As for `CC(=O)N1CCOc2c(cnn2C)-c2ccc3[nH]nc(c3c2)/C=C/c2c(nn(C)c2C)C1` [Example 52, 1-[(17E)-8,15,16-trimethyl-2,8,10,11,13,15-hexahydro-12H-3,5-ethenotripyrazolo[3,4-f:3′,4′-j:4″,3″- n][1,4]oxazacyclopentadecin-12-yl]ethan-1-one], the concentration for half-maximal inhibition (IC50) stood at 0.56 nM at CLK4, 0.19 nM on CLK2, 148 nM on CLK3 and 0.24 nM on CLK1.
Take `CCNc1nn(CCO)c2c1/C=C/c1n[nH]c3ccc(cc13)-c1cnn(C)c1O[C@@H](C)CN(C)C2` [Example 295, 2-[(10S,17E)-16-(ethylamino)-8,10,12-trimethyl-2,8,10,11,12,13-hexahydro-14H-3,5-ethenotripyrazolo[3,4-f:3′,4′-j:4″,3″-n][1,4]oxazacyclopentadecin-14-yl]ethan-1-ol]: the half-maximal inhibitory concentration (IC50) at CLK4 came out at 1.12 nM; on CLK2 it was 0.78 nM; on CLK3, 13.8 nM; on CLK1 it was 0.64 nM.
Consider `Cc1c2c(nn1C)OCCOCc1c(cnn1C)-c1ccc3[nH]nc(c3c1)/C=C/2` [Ex. 7, (17E)-8,15,16-trimethyl-2,8,9,11,12,15-hexahydro-3,5-etheno[1,4]dioxacyclopentadecino[11,10-c:15,14-c′:6,7-c″]tripyrazole], for which the IC50 on EGFR WT was over 1000 nM; at CLK4 it was 0.48 nM; on CLK2 it was 0.08 nM; at CLK3, 45.2 nM; against EGFR Δ746-750 mutant it was 898 nM; against EGFR L858R mutant it was 687 nM. The concentration for half-maximal inhibition (IC50) in [1] was found to be 202 nM; at EGFR (D770_N771insNPG), 2120 nM; at CLK1 it was 0.2 nM.
Take `C#Cc1nn(C)c2c1-c1ccc3[nH]nc(c3c1)/C=C/c1c(OCC)nn(CCO)c1CN(C)C[C@H](C)O2` [Example 292, 2-[(10S,17E)-16-ethoxy-6-ethynyl-8,10,12-trimethyl-2,8,10,11,12,13-hexahydro-14H-3,5-ethenotripyrazolo[3,4-f:3′,4′-j:4″,3″-n][1,4]oxazacyclopentadecin-14-yl]ethan-1-ol]: the IC50 at CLK4 was found to be 1.36 nM; on CLK2, 4.87 nM; at CLK3 it was 1000 nM; on CLK1, 1.01 nM.
The like results for `CCOc1nn(CCO)c2c1/C=C/c1n[nH]c3ccc(cc13)-c1c(C#N)nn(C)c1O[C@@H](C)CN(CC)C2` [Example 290, (10S,17E)-16-ethoxy-12-ethyl-14-(2-hydroxyethyl)-8,10-dimethyl-2,10,11,12,13,14-hexahydro-8H-3,5-ethenotripyrazolo[3,4-f:3′,4′-j:4″,3″-n][1,4]oxazacyclopentadecine-6-carbonitrile] were, in that order, 38.1 nM, 102 nM, 1000 nM and 69.4 nM.
The like results for `Cc1nn(C)c2c1/C=C/c1n[nH]c3ccc(cc13)-c1cnn(C)c1O[C@@H](C)CN(C)[C@H]2C` (single isomer, unassigned) [Example 145] were, in that order, 0.52 nM, 0.04 nM, 99.6 nM and 0.21 nM.
